Source: US8765786B2, “1-substituted indazole derivative” (Dainippon Sumitomo Pharma Co., Ltd., priority 2012, dated 2014)

Biological target: T1, human α7 nAChR (Homo sapiens, UniProt P36544)
T1 construct: expressed in transfected cells; host or cells: GH4C1 cells derived from rat pituitary (ATCC CCL-82.2)
Experiment: Evaluation of PAM activity with human α7 nACh receptor stably expressing cells (aequorin luminescence, FDSS7000)
Format: cell-based
Settings: for α7PAM (%) @ 10 μmol/L / activity at 10 µM: test compound 10 μmol/L, ACh added at EC20, ratio of RLU (Max-Min) of test wells to control wells; for PAM activity for α7 nAChR: result in words, ratio of RLU (Max-Min) to control wells, ACh EC20; for activity at 10 µM: read-out: α7PAM (%) @ 10 μmol/L
Outline: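 Rat pituitary GH4C1 cells stably expressing human α7 nAChR and aequorin, loaded 4 h at room temperature with 4 μmol/L substrate, in Hanks/20 mM HEPES pH 7.4. After compound then ACh addition, 465 nm luminescence recorded 138 s; PAM activity is RLU (Max-Min) ratio to control wells.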

T1 sequence (P36544 23-502): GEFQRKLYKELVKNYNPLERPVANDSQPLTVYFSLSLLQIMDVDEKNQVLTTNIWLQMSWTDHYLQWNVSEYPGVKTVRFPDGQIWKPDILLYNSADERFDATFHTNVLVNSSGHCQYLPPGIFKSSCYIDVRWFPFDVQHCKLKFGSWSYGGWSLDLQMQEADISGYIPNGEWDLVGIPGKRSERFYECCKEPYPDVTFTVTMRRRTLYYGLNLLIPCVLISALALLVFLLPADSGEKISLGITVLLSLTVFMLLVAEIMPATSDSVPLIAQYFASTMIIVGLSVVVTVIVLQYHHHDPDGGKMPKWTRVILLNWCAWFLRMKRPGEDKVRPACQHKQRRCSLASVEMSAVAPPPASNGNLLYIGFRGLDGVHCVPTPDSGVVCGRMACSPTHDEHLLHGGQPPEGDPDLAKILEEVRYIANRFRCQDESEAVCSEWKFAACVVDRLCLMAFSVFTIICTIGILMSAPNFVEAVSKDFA

| Structure (SMILES) | α7PAM (%) @ 10 μmol/L [%] | further results |
| --- | --- | --- |
| COc1ccc2c(c1)c(C1=CCOCC1)nn2C1CCN(C(=O)N[C@H]2CC[C@H](OC)CC2)CC1 [Example 260] | 428 | – |
| CCc1ccc2c(cnn2C2CCN(C(=O)NC3CCC(F)(F)CC3)CC2)c1 [Example 23] | – | PAM activity for α7 nAChR: stronger PAM activity than others |
| COC1CCC(NC(=O)N2CCC(n3ncc4cc(OC(C)C)ccc43)CC2)CC1 (centres unmarked) [Example 47] | 375 | – |
| Cc1ccc2c(cnn2C2CCN(C(=O)C3CCCCC3)CC2)c1 [Example 105] | 338 | – |
| COc1c(Br)ccc2c1cnn2C1CCN(C(=O)N[C@H]2CC[C@H](OC)CC2)CC1 [Example 285] | 293 | – |
| [2H]C([2H])([2H])Oc1nn(C2CCN(C(=O)NC3CCOCC3)CC2)c2ccc(C(F)(F)F)cc12 [Example 309] | 406 | – |
| O=C(NC1CCCC1)N1CCC(n2ncc3cc(OC(F)(F)F)ccc32)CC1 [Example 229] | 689 | – |
| COc1ccc2c(c1)c(C1CCOCC1)nn2C1CCN(C(=O)N[C@H]2CC[C@H](OC)CC2)CC1 [Example 262] | 348 | – |
| Cc1ccc2c(cnn2C2CCN(C(=O)NC3CCCCC3)CC2)c1 [Example 8, N-cyclohexyl-4-(5-methyl-1H-indazol-1-yl)piperidine-1-carboxamide] | – | PAM activity for α7 nAChR: stronger PAM activity than others |
| O=C(C1CCOCC1)N1CCC(n2ncc3cc(Br)ccc32)CC1 [Example 102] | 228 | – |
| [2H]C([2H])([2H])c1ccc2c(cnn2C2CCN(C(=O)NC3CCC(F)(F)CC3)CC2)c1 [Example 311] | 1393 | – |
| O=C(NC1CCCOC1)N1CCC(n2ncc3cc(OC(F)(F)F)ccc32)CC1 (centres unmarked) [Example 300, N-(tetrahydro-2H-pyran-3-yl)-4-[5-(trifluoromethoxy)-1H-indazol-1-yl]piperidine-1-carboxamide] | – | activity at 10 µM: 376% |
| O=C(NC1CCC(F)(F)CC1)N1CCC(n2ncc3c(F)cccc32)CC1 [Example 190] | 256 | – |
| CCc1c(OC)ccc2c1cnn2C1CCN(C(=O)N[C@H]2CC[C@H](OC)CC2)CC1 [Example 288] | 218 | – |
| CCc1ccc2c(cnn2C2CCN(C(=O)NC3CCC(F)(F)CC3)CC2)c1OC [Example 256] | 1668 | – |
| [2H]C([2H])([2H])O[C@H]1CC[C@H](NC(=O)N2CCC(n3ncc4cc(OC(F)(F)F)ccc43)CC2)CC1 [Example 226, N-{trans-4-[(^2H3)methoxy]cyclohexyl}-4-[5-(trifluoromethoxy)-1H-indazol-1-yl]piperidine-1-carboxamide] | 594 | – |
| CCOc1ccc2c(cnn2C2CCN(C(=O)NC3CCOCC3)CC2)c1 [Example 19] | 306 | – |
| CCc1ccc2c(c1)c(COC)nn2C1CCN(C(=O)NC2CCC(F)(F)CC2)CC1 [Example 157] | 366 | – |
| CCOc1nn(C2CCN(C(=O)NC3CCOCC3)CC2)c2ccc(CC)cc12 [Example 2, 4-(3-ethoxy-5-ethyl-1H-indazol-1-yl)-N-(tetrahydro-2H-pyran-4-yl)piperidine-1-carboxamide] | – | activity at 10 µM: 625% |
| CCOc1ccc2c(cnn2C2CCN(C(=O)C3CCCC3)CC2)c1 [Example 110] | 291 | – |
| COCc1cccc2c1cnn2C1CCN(C(=O)NC2CCCCC2)CC1 [Example 165] | 442 | – |
| CCc1cnc2c(cnn2C2CCN(C(=O)NC3CCOCC3)CC2)c1 [Example 101] | 338 | – |
| CCOc1ccc2c(cnn2C2CCN(C(=O)C3CCCCC3)CC2)c1 [Example 109] | 267 | – |
| COC(C)Cc1ccc2c(cnn2C2CCN(C(=O)NC3CCC(F)(F)CC3)CC2)c1 (centres unmarked) [Example 251] | 868 | – |
| COc1ccc2c(c1)c(C1CC1)nn2C1CCN(C(=O)N[C@H]2CC[C@H](OC)CC2)CC1 [Example 257] | 801 | – |
| O=C(NC1CCCOC1)N1CCC(n2ncc3cc(C4CC4)ccc32)CC1 (centres unmarked) [Example 177] | 712 | – |
